PubChem BioAssay AID248 (DTP/NCI, 2004)
Several values for one entry are separate records, joined by “and”; a condition that tells them apart may be missing. Identical values can stand only once. Inconclusive results and toxic doses are left out. Cut-off read from the data, not from the text of the source: active = T/C of 150% or more; inactive = T/C below 125%.

Tested on: L1210 leukemia ip in BDF1 mice, survival T/C
Experiment: NCI In Vivo Anticancer Drug Screen. Data for tumor model L1210 Leukemia (intraperitoneal) in B6D2F1 (BDF1) mice
Conditions: endpoint: mean survival time, higher = longer survival
How it was run: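 Ratio derived from survival: compound-dosed mice over vehicle-dosed mice, all bearing a transplantable tumor.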

[1] = dose: 100.0 mg/kg/injection, schedule: Q01DX009 (ip), vehicle: Klucel (hydroxypropylcellulose) (HPC)
[2] = dose: 100.0 mg/kg/injection, schedule: Q04DX002 (ip), vehicle: Klucel (hydroxypropylcellulose) (HPC)
[3] = dose: 100.0 mg/kg/injection, schedule: Q04DX003 (ip), vehicle: Klucel (hydroxypropylcellulose) (HPC)
[4] = dose: 200.0 mg/kg/injection, schedule: Q04DX003 (ip), vehicle: Klucel (hydroxypropylcellulose) (HPC)
[5] = dose: 400.0 mg/kg/injection, schedule: Q04DX003 (ip), vehicle: Klucel (hydroxypropylcellulose) (HPC)
[6] = dose: 100.0 mg/kg/injection, schedule: Q01DX001 (ip), vehicle: carboxymethylcellulose (CMC)
[7] = dose: 200.0 mg/kg/injection, schedule: Q01DX001 (ip), vehicle: carboxymethylcellulose (CMC)
[8] = dose: 150.0 mg/kg/injection, schedule: Q01DX001 (ip), vehicle: saline
[9] = dose: 200.0 mg/kg/injection, schedule: Q01DX009 (ip), vehicle: Klucel (hydroxypropylcellulose) (HPC)
[10] = dose: 400.0 mg/kg/injection, schedule: Q01DX009 (ip), vehicle: Klucel (hydroxypropylcellulose) (HPC)
[11] = dose: 100.0 mg/kg/injection, schedule: Q04DX003 (ip), vehicle: saline with Tween-80
[12] = dose: 200.0 mg/kg/injection, schedule: Q04DX003 (ip), vehicle: saline with Tween-80
[13] = dose: 400.0 mg/kg/injection, schedule: Q04DX003 (ip), vehicle: saline with Tween-80

Measured: T/C

COC(=O)c1ccccc1NC(=O)c1ccccc1C(=O)O
inactive: dose: 25.0 mg/kg/injection, schedule: Q01DX009 (ip), vehicle: Klucel (hydroxypropylcellulose) (HPC) 100 % of control | dose: 50.0 mg/kg/injection, schedule: Q01DX009 (ip), vehicle: Klucel (hydroxypropylcellulose) (HPC) 103 % of control | [1] 93 % of control and 102 % of control | [2] 98 % of control | dose: 150.0 mg/kg/injection, schedule: Q01DX009 (ip), vehicle: Klucel (hydroxypropylcellulose) (HPC) 100 % of control | dose: 225.0 mg/kg/injection, schedule: Q01DX009 (ip), vehicle: Klucel (hydroxypropylcellulose) (HPC) 97 % of control | dose: 335.0 mg/kg/injection, schedule: Q01DX009 (ip), vehicle: Klucel (hydroxypropylcellulose) (HPC) 102 % of control

Clc1ccccc1-n1cc(-c2ccccc2)nn1
inactive: [2] 114 % of control | dose: 200.0 mg/kg/injection, schedule: Q04DX002 (ip), vehicle: Klucel (hydroxypropylcellulose) (HPC) 108 % of control | dose: 400.0 mg/kg/injection, schedule: Q04DX002 (ip), vehicle: Klucel (hydroxypropylcellulose) (HPC) 108 % of control

CC(O)C(O)C(O)C(O)/C=N/O (stereo unspecified)
inactive: [3] 100 % of control | [4] 97 % of control | [5] 102 % of control

COc1ccc(Sc2ccccc2N)c([N+](=O)[O-])c1
inactive: [3] 100 % of control | [4] 97 % of control | [5] 92 % of control

O=C(Nc1nccs1)Nc1cc(C(F)(F)F)ccc1Cl
inactive: dose: 50.0 mg/kg/injection, schedule: Q01DX001 (ip), vehicle: carboxymethylcellulose (CMC) 103 % of control | dose: 50.0 mg/kg/injection, schedule: Q01DX009 (ip), vehicle: carboxymethylcellulose (CMC) 98 % of control and 109 % of control | dose: 50.0 mg/kg/injection, schedule: Q04DX003 (ip), vehicle: carboxymethylcellulose (CMC) 102 % of control | [6] 97 % of control | dose: 100.0 mg/kg/injection, schedule: Q01DX009 (ip), vehicle: carboxymethylcellulose (CMC) 101 % of control and 88 % of control | dose: 100.0 mg/kg/injection, schedule: Q04DX002 (ip), vehicle: carboxymethylcellulose (CMC) 97 % of control and 101 % of control | dose: 100.0 mg/kg/injection, schedule: Q04DX003 (ip), vehicle: carboxymethylcellulose (CMC) 97 % of control | [7] 98 % of control | dose: 200.0 mg/kg/injection, schedule: Q04DX002 (ip), vehicle: carboxymethylcellulose (CMC) 87 % of control | dose: 200.0 mg/kg/injection, schedule: Q04DX003 (ip), vehicle: carboxymethylcellulose (CMC) 96 % of control

O=C(NCCCl)NC1CS(=O)(=O)CS(=O)(=O)C1
inactive: dose: 75.0 mg/kg/injection, schedule: Q01DX001 (ip), vehicle: other 104 % of control

O=C1c2cccc([N+](=O)[O-])c2C(=O)N1c1ncn[nH]1
inactive: dose: 44.0 mg/kg/injection, schedule: Q01DX001 (ip), vehicle: saline 93 % of control and 92 % of control | dose: 50.0 mg/kg/injection, schedule: Q01DX001 (ip), vehicle: saline 100 % of control | dose: 66.0 mg/kg/injection, schedule: Q01DX001 (ip), vehicle: saline 93 % of control and 102 % of control | dose: 100.0 mg/kg/injection, schedule: Q01DX001 (ip), vehicle: saline 95 % of control and 92 % of control | [8] 98 % of control | dose: 200.0 mg/kg/injection, schedule: Q01DX001 (ip), vehicle: saline 111 % of control | dose: 400.0 mg/kg/injection, schedule: Q01DX001 (ip), vehicle: saline 91 % of control

Cc1ccc2[nH]c(=S)n(-c3cccc(C(F)(F)F)c3)c(=O)c2c1
inactive: [1] 96 % of control | [9] 104 % of control | [10] 100 % of control

COC(=O)c1ccc(Cl)c(NN)c1
inactive: [11] 100 % of control | [12] 100 % of control | [13] 105 % of control

Cc1ccc(S(=O)(=O)OCC23CCC2(COS(=O)(=O)c2ccc(C)cc2)COC3)cc1 (stereo unspecified)
inactive: dose: 75.0 mg/kg/injection, schedule: Q01DX001 (ip), vehicle: saline 96 % of control | dose: 75.0 mg/kg/injection, schedule: Q01DX009 (ip), vehicle: saline 94 % of control | [8] 93 % of control | dose: 300.0 mg/kg/injection, schedule: Q01DX001 (ip), vehicle: saline 95 % of control | dose: 300.0 mg/kg/injection, schedule: Q01DX009 (ip), vehicle: saline 89 % of control

NC(=O)Nc1nc(-c2ccccc2)no1
inactive: [1] 103 % of control | [3] 97 % of control | [9] 93 % of control | [4] 105 % of control | [10] 95 % of control | [5] 89 % of control

NC(=O)/C=C\c1csc2ccccc12
inactive: [6] 100 % of control | [7] 94 % of control | dose: 400.0 mg/kg/injection, schedule: Q01DX001 (ip), vehicle: carboxymethylcellulose (CMC) 94 % of control

CC(=O)c1ccccc1C(=O)O
inactive: dose: 50.0 mg/kg/injection, schedule: Q04DX003 (ip), vehicle: Klucel (hydroxypropylcellulose) (HPC) 98 % of control | [3] 94 % of control | [4] 96 % of control

Cc1ccc(NC(=O)OC/C=C/c2ccccc2)c(Cl)c1
inactive: [1] 99 % of control | [9] 97 % of control

CC(C)=C(c1ccc(Br)cc1)c1ccc(Br)cc1
inactive: dose: 100.0 mg/kg/injection, schedule: Q01DX009 (ip), vehicle: acetone 93 % of control | [11] 105 % of control | [12] 97 % of control | [13] 94 % of control

COC(=O)C(NC(=O)c1ccccc1)C(C)(C)SCc1ccccc1 (stereo unspecified)
inactive: dose: 100.0 mg/kg/injection, schedule: Q04DX003 (ip), vehicle: other 92 % of control | dose: 200.0 mg/kg/injection, schedule: Q04DX003 (ip), vehicle: other 96 % of control | dose: 400.0 mg/kg/injection, schedule: Q04DX003 (ip), vehicle: other 92 % of control

O=[N+]([O-])c1ccccc1S(=O)(=O)/C=C/c1ccccc1
inactive: dose: 100.0 mg/kg/injection, schedule: Q01DX001 (ip), vehicle: Klucel (hydroxypropylcellulose) (HPC) 96 % of control | [1] 93 % of control | [3] 100 % of control | dose: 200.0 mg/kg/injection, schedule: Q01DX001 (ip), vehicle: Klucel (hydroxypropylcellulose) (HPC) 109 % of control | [9] 100 % of control | [4] 106 % of control | dose: 400.0 mg/kg/injection, schedule: Q01DX001 (ip), vehicle: Klucel (hydroxypropylcellulose) (HPC) 96 % of control | [10] 94 % of control | [5] 101 % of control

CC(=O)OC1C=CCC2C(=O)c3cc4ccccc4cc3C(=O)C12 (stereo unspecified)
inactive: dose: 100.0 mg/kg/injection, schedule: Q01DX001 (ip), vehicle: other 100 % of control | dose: 200.0 mg/kg/injection, schedule: Q01DX001 (ip), vehicle: other 104 % of control

N/N=C(\N)c1cn(C2OC(CO)C(O)C2O)c2ncnc(N)c12 (stereo unspecified)
inactive: dose: 5.0 mg/kg/injection, schedule: Q01DX001 (ip), vehicle: carboxymethylcellulose (CMC) 109 % of control

Cc1ncc([N+](=O)[O-])n1CCN1CCOCC1
inactive: dose: 100.0 mg/kg/injection, schedule: Q04DX002 (ip), vehicle: saline 102 % of control | dose: 200.0 mg/kg/injection, schedule: Q04DX002 (ip), vehicle: saline 96 % of control | dose: 400.0 mg/kg/injection, schedule: Q04DX002 (ip), vehicle: saline 98 % of control
